Experimental data taken from article PMC3893891 (Journal of biomolecular screening, 2012).

How the values were obtained:
Assay type in all cases: biochemical
Settings in all cases: OMFP substrate
PTP1B = target: T1, PTP1B (Homo sapiens, UniProt P18031); experiment: Phosphatase assay of PTP1B
T1 sequence (P18031 1-435): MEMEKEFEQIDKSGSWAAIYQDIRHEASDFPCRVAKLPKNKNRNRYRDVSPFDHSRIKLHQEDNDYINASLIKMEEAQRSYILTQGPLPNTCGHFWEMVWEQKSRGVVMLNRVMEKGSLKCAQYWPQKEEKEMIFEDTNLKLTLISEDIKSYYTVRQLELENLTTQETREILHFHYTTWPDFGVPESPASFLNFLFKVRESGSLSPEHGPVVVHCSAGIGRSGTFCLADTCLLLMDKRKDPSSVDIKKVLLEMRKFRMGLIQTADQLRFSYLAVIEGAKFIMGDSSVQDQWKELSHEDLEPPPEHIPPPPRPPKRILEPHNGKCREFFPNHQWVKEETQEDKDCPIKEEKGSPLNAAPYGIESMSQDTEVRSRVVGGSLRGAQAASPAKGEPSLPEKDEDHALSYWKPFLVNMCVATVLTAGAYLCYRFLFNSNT

PPM1A = target: T2, PPM1A (Homo sapiens, UniProt P35813); experiment: Phosphatase assay of PPM1A
T2 sequence (P35813 1-382): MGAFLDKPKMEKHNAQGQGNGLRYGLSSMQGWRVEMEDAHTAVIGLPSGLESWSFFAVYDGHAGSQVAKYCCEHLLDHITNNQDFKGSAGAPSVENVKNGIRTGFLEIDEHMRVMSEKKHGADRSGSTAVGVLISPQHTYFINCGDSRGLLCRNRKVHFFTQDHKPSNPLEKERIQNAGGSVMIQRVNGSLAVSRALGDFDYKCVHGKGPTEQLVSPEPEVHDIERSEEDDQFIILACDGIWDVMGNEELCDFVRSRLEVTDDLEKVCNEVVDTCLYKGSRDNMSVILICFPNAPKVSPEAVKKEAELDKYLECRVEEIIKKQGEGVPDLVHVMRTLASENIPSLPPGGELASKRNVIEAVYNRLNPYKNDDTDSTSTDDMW

Scp1 = target: T3, Scp1 (Homo sapiens, UniProt Q9GZU7); experiment: Phosphatase assay of Scp1
T3 sequence (Q9GZU7 1-261): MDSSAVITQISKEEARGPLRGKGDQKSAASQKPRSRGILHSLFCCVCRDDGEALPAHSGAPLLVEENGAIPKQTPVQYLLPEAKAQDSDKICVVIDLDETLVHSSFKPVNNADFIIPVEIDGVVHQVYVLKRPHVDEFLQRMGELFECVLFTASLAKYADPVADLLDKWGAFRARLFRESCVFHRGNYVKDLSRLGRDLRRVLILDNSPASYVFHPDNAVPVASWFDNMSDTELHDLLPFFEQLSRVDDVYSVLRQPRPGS

Row | inhibition of PTP1B phosphatase activity (PTP1B) | inhibition of PPM1A phosphatase activity (PPM1A) | inhibition of Scp1 phosphatase activity (Scp1) | SMILES
1 | does not significantly inhibit | does not significantly inhibit | does not significantly inhibit | O=C(N/N=C/c1ccc(Sc2ccccn2)o1)c1ccccc1 [NCGC00241225]
2 | does not significantly inhibit | does not significantly inhibit | does not significantly inhibit | O=C(N/N=C/c1ccc(Sc2ccccn2)o1)c1cccc([N+](=O)[O-])c1 [MLS000700592]
